Like-named read-outs stand apart in the source and are kept apart here.
Biological target: T1, murine SR-BI (Mus musculus, UniProt Q61009)
T1 construct: expressed in transfected cells; host or cells: ldlA-7 (LDL receptor deficient Chinese hamster ovary cells)
T1 sequence (Q61009 1-509): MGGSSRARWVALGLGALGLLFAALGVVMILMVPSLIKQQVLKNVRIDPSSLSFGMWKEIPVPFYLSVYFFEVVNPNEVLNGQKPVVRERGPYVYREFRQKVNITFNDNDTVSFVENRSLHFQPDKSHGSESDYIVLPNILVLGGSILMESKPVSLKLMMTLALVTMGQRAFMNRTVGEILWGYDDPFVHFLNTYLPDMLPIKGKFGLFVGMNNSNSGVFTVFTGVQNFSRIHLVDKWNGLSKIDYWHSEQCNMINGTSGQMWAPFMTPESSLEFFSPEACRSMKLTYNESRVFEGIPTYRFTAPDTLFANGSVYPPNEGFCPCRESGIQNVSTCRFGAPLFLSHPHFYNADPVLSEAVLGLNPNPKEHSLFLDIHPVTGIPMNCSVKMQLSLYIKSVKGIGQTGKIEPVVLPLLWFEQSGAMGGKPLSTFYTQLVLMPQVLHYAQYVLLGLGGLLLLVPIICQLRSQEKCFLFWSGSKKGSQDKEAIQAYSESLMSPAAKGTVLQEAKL
Assay: Uptake of DiI from DiI-HDL by ldlA[mSR-BI] cells (high throughput screen and concentration dependence)
Type: cell-based

[1] = Test 1, DiI uptake from DiI-HDL, compounds at nominal 10 micromolar, ldlA[mSR-BI] cells
[2] = Test 2, DiI uptake from DiI-HDL, compounds at nominal 10 micromolar, ldlA[mSR-BI] cells

SMILES: NC(/N=N/c1ccccc1)=N\Nc1ccccc1 [MIT 9952-122]
- ENDOHDL Test 1 (Test 1): 0.55
- ENDOHDL Test 2 (Test 2): 0.82

SMILES: [O-][n+]1onc2c3cc(-c4ccccc4)[nH]c3ccc21 [MIT 9952-304]
- ENDOHDL Test 1 [1]: 0.35
- ENDOHDL Test 2 [2]: 0.44

SMILES: O=C(Nc1ccc(Oc2ccc(Cl)c3cccnc23)c(Cl)c1)c1ccc([N+](=O)[O-])cc1 [MIT 9952-324]
- ENDOHDL Test 1 [1]: 0.55
- ENDOHDL Test 2 [2]: 0.56

SMILES: O=C(Nc1cccc(NC(=O)c2ccccc2Cl)c1)c1cccc([N+](=O)[O-])c1 [MIT 9952-337]
- ENDOHDL Test 1 [1]: 0.6
- ENDOHDL Test 2 [2]: 0.57

SMILES: CC(C)(C)c1ccc(C(=O)Nc2cccc(NC(=O)c3cccc([N+](=O)[O-])c3)c2)cc1 [MIT 9952-331]
- ENDOHDL Test 1 [1]: 0.63
- ENDOHDL Test 2 [2]: 0.35

SMILES: Nc1nc(N)nc(-c2cccc(-c3nc(N)nc(N)n3)c2)n1 [MIT 9952-173]
- ENDOHDL Test 1 (Test 1): 1.96
- ENDOHDL Test 2 (Test 2): 1.61

SMILES: COc1cc2ccccc2cc1C(=O)Nc1cccc(C)c1 [MIT 9952-237]
- ENDOHDL Test 1 (Test 1): 0.53
- ENDOHDL Test 2 (Test 2): 0.39

SMILES: O=C(Cl)c1ccc2c(c1)C(=O)N(c1ccc(-c3ccnc(-c4ccc(N5C(=O)c6ccc(C(=O)Cl)cc6C5=O)cc4)n3)cc1)C2=O [MIT 9952-42]
- ENDOHDL Test 1 (Test 1): 1.27
- ENDOHDL Test 2 (Test 2): 1.21

SMILES: CCOc1ccc2nc3cc(/N=N/c4ccc(N)nc4N)ccc3c(N)c2c1 [MIT 9952-320]
- ENDOHDL Test 1 [1]: 0.54
- ENDOHDL Test 2 [2]: 0.83

SMILES: CCOc1ccc(NC(=O)/C=C/c2cccc([N+](=O)[O-])c2)cc1 [MIT 9952-255]
- ENDOHDL Test 1 (Test 1): 0.61
- ENDOHDL Test 2 (Test 2): 0.6

SMILES: COC(=O)/C=C1/Nc2ccccc2OC1=O [MIT 9952-151]
- ENDOHDL Test 1 (Test 1): 1.22
- ENDOHDL Test 2 (Test 2): 1.36

SMILES: CC1(C)C(C(=O)OCC(=O)c2ccc([N+](=O)[O-])cc2)CCC1C(=O)OCC(=O)c1ccc([N+](=O)[O-])cc1 (stereo not drawn) [MIT 9952-129]
- ENDOHDL Test 1 (Test 1): 0.57
- ENDOHDL Test 2 (Test 2): 0.54

SMILES: O=C(O)CCNC(=O)c1ccccc1 [MIT 9952-94]
- ENDOHDL Test 1 (Test 1): 1.21
- ENDOHDL Test 2 (Test 2): 1.22

SMILES: COc1ccc([N+](=O)[O-])cc1NC(=S)NC(NC(=O)c1ccccc1Br)C(Cl)(Cl)Cl (stereo not drawn) [MIT 9952-125]
- ENDOHDL Test 1 (Test 1): 0.63
- ENDOHDL Test 2 (Test 2): 0.66

SMILES: O=C(Nc1ccc(-c2nc3cc(NC(=O)c4ccccc4[N+](=O)[O-])ccc3o2)cc1)c1ccccc1[N+](=O)[O-] [MIT 9952-339]
- ENDOHDL Test 1 [1]: 0.58
- ENDOHDL Test 2 [2]: 0.54

SMILES: NC(=S)Nc1ccc2c(c1)Nc1ccccc1CC2 [MIT 9952-175]
- ENDOHDL Test 1 (Test 1): 0.42
- ENDOHDL Test 2 (Test 2): 0.51

SMILES: O=C(NNC(=O)c1cccc2ccccc12)c1ccc(NC(=O)c2cccc3ccccc23)cc1 [MIT 9952-329]
- ENDOHDL Test 1 [1]: 0.57
- ENDOHDL Test 2 [2]: 0.53

SMILES: CC1=C(C(=O)OCc2ccccc2)C(c2ccc(N(C)C)cc2)NC(=O)N1 (stereo not drawn) [MIT 9952-163]
- ENDOHDL Test 1 (Test 1): 0.6
- ENDOHDL Test 2 (Test 2): 0.69

SMILES: C/C(=N\NC(N)=S)c1ccc[nH]1 [MIT 9952-309]
- ENDOHDL Test 1 [1]: 0.7
- ENDOHDL Test 2 [2]: 0.68

SMILES: O=C(Nc1cc(Cl)ccc1Cl)c1cc(Br)ccc1NS(=O)(=O)c1ccc(Cl)c([N+](=O)[O-])c1 [MIT 9952-132]
- ENDOHDL Test 1: 0.65
- ENDOHDL Test 2: 0.46

SMILES: CN(CC#CC(O)(c1ccccc1)c1ccccc1)C1CCCCC1 [MIT 9952-72]
- ENDOHDL Test 1 (Test 1): 1.07
- ENDOHDL Test 2 (Test 2): 1.12

— patent publication US20040171073A1, “Compounds for modulation of cholesterol transport” (Massachusetts Institute of Technology, priority 2002, published 2004)
